IC50 and EC50 data for 22 molecules are collected here from US20260028336A1 (Arcus Biosciences, Inc., priority 2022, published 2026).

Bounds are passed on as bounds.

One assay concerns the target T1, Cbl-b (Homo sapiens, UniProt Q13191).
T1 construct: biotin (biotinylated)
Kind of assay: Cbl-b probe displacement HTRF binding assay. The conditions noted are these: 0.4 nM biotinylated Cbl-b, 150 nM BODIPY probe. In short, it runs like this:
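Biotinylated Cbl-b was preincubated with compound for 60 min at room temperature in HEPES/NaCl/Triton/TCEP/BSA buffer. BODIPY probe was added for 15 min, followed by streptavidin-terbium, and the HTRF signal was read. Displacement was normalised to DMSO and no-protein controls, and affinity was obtained from a four-parameter dose-response fit.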

The next assay concerns Jurkat cells. Kind of assay: IL-2 secretion assay in CD3/CD28-activated Jurkat cells (AlphaLISA). The format is cell-based. The conditions noted are these: Homo sapiens, CD3/CD28 T Cell Activator, 24 h, IL-2 AlphaLISA. In outline:
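Jurkat cells (50,000/well) were preincubated 1 h at 37° C with compound in a 16-point 1:2 series spanning 10 μM to 300 pM final. Cells were then activated with CD3/CD28 T cell activator, and secreted IL-2 was read by AlphaLISA. EC50 came from 4-parameter logistic fits.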

T1 sequence (Q13191 whole entry, species assumed): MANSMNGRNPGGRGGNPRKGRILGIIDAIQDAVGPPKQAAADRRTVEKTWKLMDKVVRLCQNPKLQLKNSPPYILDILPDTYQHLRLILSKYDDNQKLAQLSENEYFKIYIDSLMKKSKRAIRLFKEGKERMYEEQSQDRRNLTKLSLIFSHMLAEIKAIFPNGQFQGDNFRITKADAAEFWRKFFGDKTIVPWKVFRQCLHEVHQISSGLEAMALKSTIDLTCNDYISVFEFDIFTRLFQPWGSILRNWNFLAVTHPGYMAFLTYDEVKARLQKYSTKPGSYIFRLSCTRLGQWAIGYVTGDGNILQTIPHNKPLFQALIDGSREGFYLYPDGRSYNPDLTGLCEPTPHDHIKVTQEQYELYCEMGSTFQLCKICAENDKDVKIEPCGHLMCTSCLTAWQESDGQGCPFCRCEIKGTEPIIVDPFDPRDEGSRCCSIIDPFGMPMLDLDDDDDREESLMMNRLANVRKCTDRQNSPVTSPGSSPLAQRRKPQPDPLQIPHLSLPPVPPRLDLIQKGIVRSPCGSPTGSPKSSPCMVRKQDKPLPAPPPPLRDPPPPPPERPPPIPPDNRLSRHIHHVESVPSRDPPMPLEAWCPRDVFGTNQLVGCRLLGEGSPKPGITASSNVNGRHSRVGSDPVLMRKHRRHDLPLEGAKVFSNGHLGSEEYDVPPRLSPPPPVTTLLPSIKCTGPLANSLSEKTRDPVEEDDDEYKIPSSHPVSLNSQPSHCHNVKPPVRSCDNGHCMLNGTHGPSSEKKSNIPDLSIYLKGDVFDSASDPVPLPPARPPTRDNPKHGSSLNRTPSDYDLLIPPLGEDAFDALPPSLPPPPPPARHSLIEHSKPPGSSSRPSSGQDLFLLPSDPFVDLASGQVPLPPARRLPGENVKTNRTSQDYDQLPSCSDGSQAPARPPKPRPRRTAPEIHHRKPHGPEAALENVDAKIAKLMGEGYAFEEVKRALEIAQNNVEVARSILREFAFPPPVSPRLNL

Consider `C[C@H]1CCCN(Cc2cc3c(C4CC4)cn(-c4cccc(C5(c6nnco6)CC(F)(F)C5)c4)c(=O)c3[nH]2)C1` [Example 121, 4-cyclopropyl-6-[3-[3,3-difluoro-1-(1,3,4-oxadiazol-2-yl)cyclobutyl]phenyl]-2-[[(3S)-3-methylpiperidin-1-yl]methyl]-1H-pyrrolo[2,3-c]pyridin-7-one], for which the IC50 on Cbl-b lay within 0.1 to 1 µM. This molecule also showed an EC50 in the assay on Jurkat cells of 0.1 to 1 µM.
In the case of `C[C@H]1CCCN(Cc2cc3c(C4CC4)cn(-c4cccc(C5(Cn6nccn6)CC(F)(F)C5)c4)c(=O)c3[nH]2)C1` [Example 122, 4-cyclopropyl-6-[3-[3,3-difluoro-1-(triazol-2-ylmethyl)cyclobutyl]phenyl]-2-[[(3S)-3-methylpiperidin-1-yl]methyl]-1H-pyrrolo[2,3-c]pyridin-7-one], at Cbl-b, the IC50 fell in the range of 0.1 to 1 µM. In addition, in the assay on Jurkat cells, the EC50 is 0.1 to 1 µM.
As for `C[C@H]1CCCN(Cc2cc3c(C4CC4)cn(-c4cccc(C5(Cn6ccnn6)CC(F)(F)C5)c4)c(=O)c3[nH]2)C1` [Example 123, 4-cyclopropyl-6-[3-[3,3-difluoro-1-(triazol-1-ylmethyl)cyclobutyl]phenyl]-2-[[(3S)-3-methylpiperidin-1-yl]methyl]-1H-pyrrolo[2,3-c]pyridin-7-one], at Cbl-b, the IC50 lay within 0.1 to 1 µM. Also, the 50% effective concentration (EC50) in the assay with Jurkat cells was 0.1 to 1 µM.
The molecule `C[C@H]1CCCN(Cc2cc3c(C4CC4)cn(-c4cccc(C5(Cn6cccn6)CC(F)(F)C5)c4)c(=O)c3[nH]2)C1` [Example 124] displayed an IC50 on Cbl-b of 0.1 to 1 µM. The molecule further gave an EC50 in the assay on Jurkat cells of 0.1 to 1 µM.
`Cc1nnc(C2(c3cccc(-n4cc(C5CC5)c5cc(CN6CCC[C@H](C)C6)[nH]c5c4=O)c3)CC(F)(F)C2)n1C` [Example 125, 4-cyclopropyl-6-[3-[1-(4,5-dimethyl-1,2,4-triazol-3-yl)-3,3-difluorocyclobutyl]phenyl]-2-[[(3S)-3-methylpiperidin-1-yl]methyl]-1H-pyrrolo[2,3-c]pyridin-7-one]: the IC50 at Cbl-b fell in the range of 1 to 5 µM. The EC50 in the assay with Jurkat cells lay within 1 to 5 µM.
The molecule `C[C@H]1CCCN(Cc2cc3c(C4CC4)cn(-c4cccc([C@]5(c6nccn6C)C[C@H](F)C5)c4)c(=O)c3[nH]2)C1` [Example 126, 4-cyclopropyl-6-(3-((1r,3S)-3-fluoro-1-(1-methyl-1H-imidazol-2-yl)cyclobutyl)phenyl)-2-(((S)-3-methylpiperidin-1-yl)methyl)-1,6-dihydro-7H-pyrrolo[2,3-c]pyridin-7-one] came in with an IC50 at Cbl-b of less than 0.1 µM. In addition, the EC50 in the assay on Jurkat cells was less than 0.1 µM.
Consider `C[C@H]1CCCN(Cc2cc3c(C4CC4)cn(-c4cccc(C5(c6ncco6)CC(F)(F)C5)c4)c(=O)c3[nH]2)C1` [Example 127, 4-cyclopropyl-6-[3-[3,3-difluoro-1-(1,3-oxazol-2-yl)cyclobutyl]phenyl]-2-[[(3S)-3-methylpiperidin-1-yl]methyl]-1H-pyrrolo[2,3-c]pyridin-7-one], for which the IC50 at Cbl-b lay in the range of 0.1 to 1 µM. This molecule also registered an EC50 with Jurkat cells of 0.1 to 1 µM.
On Cbl-b, `C[C@H]1CCCN(Cc2cc3c(C4CC4)cn(-c4cccc(C5(c6nccn6C)CC(F)(F)C5)c4)c(=O)c3[nH]2)C1` [Example 128, 4-cyclopropyl-6-[3-[3,3-difluoro-1-(1-methylimidazol-2-yl)cyclobutyl]phenyl]-2-[[(3S)-3-methylpiperidin-1-yl]methyl]-1H-pyrrolo[2,3-c]pyridin-7-one] showed an IC50 of less than 0.1 µM. Also, the EC50 with Jurkat cells was in the range of 0.1 to 1 µM.
For `C[C@H]1CCCN(Cc2cc3c(C4CC4)cn(-c4cccc([C@]5(c6nncn6C)C[C@@H](F)C5)c4)c(=O)c3[nH]2)C1` [Example 129, cis-4-cyclopropyl-6-[3-[3-fluoro-1-(4-methyl-1,2,4-triazol-3-yl)cyclobutyl]phenyl]-2-[[(3S)-3-methylpiperidin-1-yl]methyl]-1H-pyrrolo[2,3-c]pyridin-7-one], in that order: less than 0.1 µM and less than 0.1 µM.
At Cbl-b, `C[C@H]1CCCN(Cc2cc3c(C4CC4)cn(-c4cccc([C@]5(c6nncn6C)C[C@H](F)C5)c4)c(=O)c3[nH]2)C1` [Example 130, trans-4-cyclopropyl-6-[3-[3-fluoro-1-(4-methyl-1,2,4-triazol-3-yl)cyclobutyl]phenyl]-2-[[(3S)-3-methylpiperidin-1-yl]methyl]-1H-pyrrolo[2,3-c]pyridin-7-one] returned a half-inhibitory concentration (IC50) of less than 0.1 µM. Besides, the EC50 in the assay with Jurkat cells was less than 0.1 µM.
In the case of `Cn1nccc1-c1c[nH]c2c(=O)n(-c3cccc([C@]4(c5nncn5C)C[C@@H](C)C4)c3)cc(C3CC3)c12` [Example 132, 4-Cyclopropyl-3-(1-methyl-1H-pyrazol-5-yl)-6-{3-[(1R,3S)-3-methyl-1-(4-methyl-4H-1,2,4-triazol-3-yl)cyclobutyl]phenyl}-1H,6H,7H-pyrrolo[2,3-c]pyridin-7-one], the IC50 at Cbl-b is less than 0.1 µM. The molecule further yielded an EC50 with Jurkat cells of 1 to 5 µM.
For `Cn1nncc1-c1c[nH]c2c(=O)n(-c3cccc([C@]4(c5nncn5C)C[C@@H](C)C4)c3)cc(C3CC3)c12` [Example 133, 4-Cyclopropyl-3-(1-methyl-1H-1,2,3-triazol-5-yl)-6-{3-[(1R,3S)-3-methyl-1-(4-methyl-4H-1,2,4-triazol-3-yl)cyclobutyl]phenyl}-1H,6H,7H-pyrrolo[2,3-c]pyridin-7-one], in that order: less than 0.1 µM and more than 5 µM.
For `Cn1cnnc1C1(c2cccc(-n3cc(C(F)(F)F)c4c(C#N)c[nH]c4c3=O)c2)CC2(CC2)C1` [Example 137, 6-{3-[5-(4-Methyl-4H-1,2,4-triazol-3-yl)spiro[2.3]hexan-5-yl]phenyl}-7-oxo-4-(trifluoromethyl)-1H,6H,7H-pyrrolo[2,3-c]pyridine-3-carbonitrile], in that order: less than 0.1 µM and 1 to 5 µM.
As to `Cn1cnnc1[C@]1(c2cccc(-n3cc(C(F)(F)F)c4cn[nH]c4c3=O)c2)C[C@H](C)C1` [Example 140, 6-{3-[(1R,3S)-3-Methyl-1-(4-methyl-4H-1,2,4-triazol-3-yl)cyclobutyl]phenyl}-4-(trifluoromethyl)-1H,6H,7H-pyrazolo[3,4-c]pyridin-7-one], the IC50 at Cbl-b was less than 0.1 µM. Moreover, the EC50 in the assay on Jurkat cells lay in the range of 0.1 to 1 µM.
For `Cn1cnnc1[C@]1(c2cccc(-n3cc(CO)c4cn[nH]c4c3=O)c2)C[C@H](C)C1` [Example 142, 4-(Hydroxymethyl)-6-{3-[(1R,3S)-3-methyl-1-(4-methyl-4H-1,2,4-triazol-3-yl)cyclobutyl]phenyl}-1H,6H,7H-pyrazolo[3,4-c]pyridin-7-one], in that order: 1 to 5 µM and more than 5 µM.
For `C[C@H]1CCCN(Cc2cc3c(C4CC4)cn(-c4cccc(C5(c6nncn6C6CC6)CC6(CC6)C5)c4)c(=O)c3[nH]2)C1` [Example 144, 4-cyclopropyl-6-[3-[5-(4-cyclopropyl-1,2,4-triazol-3-yl)spiro[2.3]hexan-5-yl]phenyl]-2-[[(3S)-3-methylpiperidin-1-yl]methyl]-1H-pyrrolo[2,3-c]pyridin-7-one], the IC50 at Cbl-b was less than 0.1 µM. In the assay on Jurkat cells, this molecule registered an EC50 of 0.1 to 1 µM.
Taken in the same sequence, the figures for `CC(C)n1cnnc1C1(c2cccc(-n3cc(C4CC4)c4cc(CN5CCC[C@H](C)C5)[nH]c4c3=O)c2)CC2(CC2)C1` [Example 145, 4-Cyclopropyl-2-[[(3S)-3-methylpiperidin-1-yl]methyl]-6-[3-[5-(4-propan-2-yl-1,2,4-triazol-3-yl)spiro[2.3]hexan-5-yl]phenyl]-1H-pyrrolo[2,3-c]pyridin-7-one] were less than 0.1 µM and 1 to 5 µM.
Taken in the same sequence, the figures for `C[C@H]1CCCN(Cc2cc3c(C4CC4)cn(-c4cccc(C5(c6nncn6CC(F)F)CC6(CC6)C5)c4)c(=O)c3[nH]2)C1` [Example 146, 4-Cyclopropyl-6-[3-[5-[4-(2,2-difluoroethyl)-1,2,4-triazol-3-yl]spiro[2.3]hexan-5-yl]phenyl]-2-[[(3S)-3-methylpiperidin-1-yl]methyl]-1H-pyrrolo[2,3-c]pyridin-7-one] were less than 0.1 µM and 0.1 to 1 µM.
For `C[C@H]1CCCN(Cc2cc3c(C4CC4)cn(-c4cccc(C5(c6nncn6CC(F)(F)F)CC6(CC6)C5)c4)c(=O)c3[nH]2)C1` [Example 147, 4-Cyclopropyl-2-[[(3S)-3-methylpiperidin-1-yl]methyl]-6-[3-[5-[4-(2,2,2-trifluoroethyl)-1,2,4-triazol-3-yl]spiro[2.3]hexan-5-yl]phenyl]-1H-pyrrolo[2,3-c]pyridin-7-one], in that order: less than 0.1 µM and 1 to 5 µM.
Molecule `C[C@H]1CCCN(Cc2cc3c(C4CC4)cn(-c4cccc([C@]5(c6nncn6C(F)F)C[C@H](F)C5)c4)c(=O)c3[nH]2)C1` [Example 148, 2—{[(S)-3-methyl-1-piperidyl]methyl}-4-cyclopropyl-6-(m-{1-[4-(difluoromethyl)-4H-1,2,4-triazol-3-yl]-3-fluorocyclobutyl}phenyl)-1,6-dihydro-1,6-diaza-7-indenone] yielded an IC50 at Cbl-b of less than 0.1 µM. This molecule also yielded an EC50 in the assay on Jurkat cells of less than 0.1 µM.
On to `C[C@H]1CCCN(Cc2cc3ncn(-c4cccc([C@]5(c6nncn6C(F)F)C[C@H](F)C5)c4)c(=O)c3[nH]2)C1` [Example 149, 2—{[(S)-3-methyl-1-piperidyl]methyl}-6-(m-{(1r,3S)-1-[4-(difluoromethyl)-4H-1,2,4-triazol-3-yl]-3-fluorocyclobutyl}phenyl)-1,6-dihydro-1,4,6-triaza-7-indenone], for which the half-maximal inhibitory concentration (IC50) on Cbl-b is less than 0.1 µM. In addition, the EC50 in the assay on Jurkat cells was less than 0.1 µM.
The molecule `C[C@H]1CCCN(Cc2cc3c(C4CC4)cn(-c4cccc(C5(c6nncn6C(F)F)CC6(CC6)C5)c4)c(=O)c3[nH]2)C1` [Example 150, 4-cyclopropyl-6-[3-[5-[4-(difluoromethyl)-1,2,4-triazol-3-yl]spiro[2.3]hexan-5-yl]phenyl]-2-[[(3S)-3-methylpiperidin-1-yl]methyl]-1H-pyrrolo[2,3-c]pyridin-7-one] yielded a concentration for half-maximal inhibition (IC50) at Cbl-b of less than 0.1 µM. For the same molecule, the EC50 with Jurkat cells is less than 0.1 µM.
